In PMC9516332 (Frontiers in Oncology, 2022):

Experiments:
Test in all cases: Kinase panel profiling at 1 µmol/L (MSA or IMAP), percentage inhibition
Type in all cases: biochemical
[1] = target: T1, panel of 255 wild-type kinases (Homo sapiens, UniProt P29322); settings: kinase EPHA8; 1 µmol/L single concentration; read-out: %-inhibition at 1 µmol/L, EPHA8
T1 sequence (P29322 28-1005): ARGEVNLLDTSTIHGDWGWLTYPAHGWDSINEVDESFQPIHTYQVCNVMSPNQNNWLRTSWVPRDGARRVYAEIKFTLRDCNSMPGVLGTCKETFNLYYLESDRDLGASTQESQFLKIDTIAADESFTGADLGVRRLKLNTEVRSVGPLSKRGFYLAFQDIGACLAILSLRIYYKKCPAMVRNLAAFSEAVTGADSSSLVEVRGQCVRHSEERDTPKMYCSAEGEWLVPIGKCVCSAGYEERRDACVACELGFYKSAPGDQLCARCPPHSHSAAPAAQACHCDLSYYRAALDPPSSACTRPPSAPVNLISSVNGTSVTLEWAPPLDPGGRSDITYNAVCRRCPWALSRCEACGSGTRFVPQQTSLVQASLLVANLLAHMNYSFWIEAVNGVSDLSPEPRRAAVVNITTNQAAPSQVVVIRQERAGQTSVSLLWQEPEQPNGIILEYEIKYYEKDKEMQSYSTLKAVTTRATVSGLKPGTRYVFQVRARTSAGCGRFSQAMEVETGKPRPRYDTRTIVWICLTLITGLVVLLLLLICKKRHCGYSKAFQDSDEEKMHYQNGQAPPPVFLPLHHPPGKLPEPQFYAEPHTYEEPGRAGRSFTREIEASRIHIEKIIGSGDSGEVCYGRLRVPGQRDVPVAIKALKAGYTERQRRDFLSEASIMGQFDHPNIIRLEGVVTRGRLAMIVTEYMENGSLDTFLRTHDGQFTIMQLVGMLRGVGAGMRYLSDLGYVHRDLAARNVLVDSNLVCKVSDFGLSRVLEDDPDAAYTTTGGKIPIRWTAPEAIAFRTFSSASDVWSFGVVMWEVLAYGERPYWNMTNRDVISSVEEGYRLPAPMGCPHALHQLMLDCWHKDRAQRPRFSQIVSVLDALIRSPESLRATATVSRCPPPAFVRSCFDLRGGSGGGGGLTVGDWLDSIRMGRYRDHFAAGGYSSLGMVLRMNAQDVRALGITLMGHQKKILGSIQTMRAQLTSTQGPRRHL

[2] = target: T2, panel of 255 wild-type kinases (Homo sapiens, UniProt O00141); settings: kinase SGK; 1 µmol/L single concentration; read-out: %-inhibition at 1 µmol/L, SGK
T2 sequence (O00141 1-431): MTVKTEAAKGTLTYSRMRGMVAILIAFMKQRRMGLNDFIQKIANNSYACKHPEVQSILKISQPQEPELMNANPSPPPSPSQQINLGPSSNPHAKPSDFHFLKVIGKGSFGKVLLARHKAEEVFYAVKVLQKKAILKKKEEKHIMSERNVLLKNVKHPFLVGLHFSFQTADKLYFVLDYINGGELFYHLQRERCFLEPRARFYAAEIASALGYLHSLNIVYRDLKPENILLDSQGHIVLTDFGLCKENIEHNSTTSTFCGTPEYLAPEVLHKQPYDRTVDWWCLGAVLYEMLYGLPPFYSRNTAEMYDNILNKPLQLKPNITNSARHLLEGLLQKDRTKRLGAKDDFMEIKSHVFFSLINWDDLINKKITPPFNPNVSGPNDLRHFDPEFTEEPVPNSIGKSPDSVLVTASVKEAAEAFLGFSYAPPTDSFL

[3] = target: panel of 255 wild-type kinases (Homo sapiens, UniProt Q15349); settings: kinase RSK3; 1 µmol/L single concentration; read-out: %-inhibition at 1 µmol/L, RSK3
[4] = target: panel of 255 wild-type kinases (Homo sapiens, UniProt P06493); settings: CDC2/CycB1 kinase assay; 1 µmol/L single concentration; read-out: %-inhibition CDC2/CycB1
[5] = target: panel of 255 wild-type kinases (Homo sapiens, UniProt P24723); settings: kinase PKCη; 1 µmol/L single concentration; read-out: %-inhibition at 1 µmol/L, PKCη
[6] = target: panel of 255 wild-type kinases (Homo sapiens, UniProt Q9UBS0); settings: p70S6Kβ; 1 µmol/L single concentration; read-out: %-inhibition, p70S6Kβ
[7] = target: T3, panel of 255 wild-type kinases (Homo sapiens, UniProt Q12866); settings: MER; 1 µmol/L single concentration; read-out: %-inhibition, MER
T3 sequence (Q12866 21-999): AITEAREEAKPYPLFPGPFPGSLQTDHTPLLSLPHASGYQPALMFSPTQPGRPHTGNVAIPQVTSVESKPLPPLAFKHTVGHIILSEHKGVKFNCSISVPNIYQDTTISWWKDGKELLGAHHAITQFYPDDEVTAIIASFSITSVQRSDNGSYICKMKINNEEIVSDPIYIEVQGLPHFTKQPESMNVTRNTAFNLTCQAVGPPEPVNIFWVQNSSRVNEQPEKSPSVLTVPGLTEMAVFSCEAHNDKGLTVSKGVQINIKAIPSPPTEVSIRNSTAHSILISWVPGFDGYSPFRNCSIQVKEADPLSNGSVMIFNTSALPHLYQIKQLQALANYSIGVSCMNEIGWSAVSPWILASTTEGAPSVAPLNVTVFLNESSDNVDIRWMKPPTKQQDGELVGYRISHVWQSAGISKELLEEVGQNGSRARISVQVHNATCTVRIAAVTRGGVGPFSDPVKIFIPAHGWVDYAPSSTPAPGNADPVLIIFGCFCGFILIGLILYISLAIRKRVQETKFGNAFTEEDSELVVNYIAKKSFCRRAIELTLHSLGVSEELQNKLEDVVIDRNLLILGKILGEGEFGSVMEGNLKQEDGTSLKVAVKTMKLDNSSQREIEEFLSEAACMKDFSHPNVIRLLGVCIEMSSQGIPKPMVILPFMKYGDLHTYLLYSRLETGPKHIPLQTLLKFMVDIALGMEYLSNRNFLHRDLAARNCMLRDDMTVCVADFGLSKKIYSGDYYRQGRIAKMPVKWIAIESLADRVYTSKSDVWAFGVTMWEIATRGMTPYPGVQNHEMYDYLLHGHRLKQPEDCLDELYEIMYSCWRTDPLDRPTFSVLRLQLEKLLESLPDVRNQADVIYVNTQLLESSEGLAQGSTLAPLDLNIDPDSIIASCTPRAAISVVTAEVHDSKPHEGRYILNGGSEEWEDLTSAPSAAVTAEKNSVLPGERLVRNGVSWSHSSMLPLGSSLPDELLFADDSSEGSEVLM

[8] = target: panel of 255 wild-type kinases (Homo sapiens, UniProt Q15759); settings: p38β; 1 µmol/L single concentration; read-out: %-inhibition, p38β

SMILES	inhibition at 1 µM [1]	inhibition at 1 µM [2]	inhibition at 1 µM [3]	inhibition at 1 µM [4]	inhibition at 1 µM [5]	inhibition at 1 µM [6]	inhibition at 1 µM [7]	inhibition at 1 µM [8]
C[C@H]1Oc2cc(cnc2N)-c2c(nn(C)c2C#N)CN(C)C(=O)c2ccc(F)cc21 [lorlatinib]	6%	-0.181%	2.53%	3.16%	0.817%	11%	11%	1.15%
CCN1C(=O)N(c2c(F)c(OC)cc(OC)c2F)Cc2cnc3[nH]c(CN4CCOCC4)cc3c21 [pemigatinib]	-6%	5%	-7.51%	10%	5%	-0.851%	7%	6%
CO[C@]1(C(=O)N[C@@H](C)c2ccc(-n3cc(F)cn3)nc2)CC[C@H](c2nc(C)cc(Nc3cc(C)[nH]n3)n2)CC1 [pralsetinib]	84%	7%	64%	15%	-3.21%	5.54%	79%	-3.42%
C=CC(=O)N1CCC([C@@H]2CCNc3c(C(N)=O)c(-c4ccc(Oc5ccccc5)cc4)nn32)CC1 [zanubrutinib]	-8%	-0.675%	-7%	-7%	4.22%	-0.467%	6%	4.54%
Cn1cc(-c2cc3c(N4CCN(c5ncc([C@@](C)(N)c6ccc(F)cc6)cn5)CC4)ncnn3c2)cn1 [avapritinib]	73%	0.775%	10%	3%	-5%	6%	17%	-2.41%
